Laboratory results from patent US6844353B2, “Fungicidal properties of sampangine and its analogs to agriculturally important fungal plant pathogens” (The United States of America as represented by the …, priority 2003, dated 2005).

Tested on: C. fragariae isolate CF-75
Assay: Detached strawberry leaf assay
Format: in vivo, Colletotrichum fragariae
Conditions: detached strawberry leaves (cultivar Chandler), five days after application
From the text: Strawberry plants of the cultivar Chandler were maintained in a warm greenhouse under conditions suitable for optimum vegetative growth. The youngest fully expanded leaf with the entire petiole from each plant was collected. The petiole of each leaf was inserted into a small test tube (10×4 mm) and filled with sterile distilled water. The left leaflet of each leaf was inoculated with C. fragariae isolate CF-75 (1.5×10^6 conidia/ml) using a hand pump sprayer. The inoculated leaves were placed in a dew chamber and incubated overnight at 30° C. and 100% relative humidity, removed from the dew chamber and allowed to dry. The test compound was applied using a chromatography sprayer until the upper surface of each leaflet was coated. After allowing the leaves to air dry for 2 hours, the right leaflet of each leaf was inoculated with C. fragariae isolate CF-75. The leaves were incubated in the dew chamber at 30° C. and 100% relative humidity for 48 hours. The leaves were then removed from the dew chamber and held in a moist chamber for 3 days (total of five days since test compounds were applied). The number of lesions on each leaflet were then counted.

Compound: CO/C=C(/C(=O)OC)c1ccccc1Oc1cc(Oc2ccccc2C#N)ncn1 [Azoxystrobin]
- Disease severity scores (# disease lesions) (Concentration 625 (unit not given)): 4.46
- Disease severity scores (# disease lesions) (Concentration 1250 (unit not given)): 1.58
- Disease severity scores (# disease lesions) (Concentration 2500 (unit not given)): 3.54
